Experimental data from ChEMBL document CHEMBL1135462, “Novel selective phosphodiesterase (PDE4) inhibitors. 4. Resolution, absolute configuration, and PDE4 inhibitory activity of cis-tetra- and cis-hexahydrophthalazinones” (J Med Chem, 2002).

Tests used:
[1] = target: Phosphodiesterase 4 (Homo sapiens, UniProt P27815+Q08499+Q07343+Q08493); assay: Inhibitory activity against phosphodiesterase 4 carried out in the cytosol of human neutrophils; format: protein assay
[2] = tested on: Mus musculus; assay: Percent inhibition of arachidonic acid induced mouse ear edema after 30 uM/kg peroral pretreatment; format: functional

| SMILES | Log IC50 [1] | Inhibition [2] [%] |
| --- | --- | --- |
| COc1ccc(C2=NNC(=O)[C@@H]3CCCC[C@H]23)c2c1OC1(CCCC1)C2 | -7.8 | – |
| COc1ccc(C2=NNC(=O)[C@H]3CCCC[C@@H]23)cc1OC | -5.1 | – |
| COc1ccc(C2=NNC(=O)C3CCCCC23)cc1OC1CCCC1 (centres undefined) | -6.8 | – |
| COc1ccc(C2=NNC(=O)[C@H]3CCCC[C@@H]23)cc1OC1CCCC1 | -5.8 | – |
| COc1ccc(C2CNC(=O)C2)cc1OC1CCCC1 (single isomer, unassigned; (-)) [ROLIPRAM] | – | 55 |
| COc1ccc(C2=NNC(=O)[C@H]3CC=CC[C@@H]23)c2c1OC1(CCCC1)C2 | -6.6 | – |
| COc1ccc(C2=NN(C3C4CC5CC(C4)CC3C5)C(=O)[C@H]3CC=CC[C@@H]23)cc1OC (single isomer, unassigned; (-)) | -6.9 | – |
| CCOc1ccc(C2=NN(c3ccc(C(=O)O)cc3)C(=O)C3CC=CCC23)cc1OCC (racemic) | -7.7 | 48 |
| COc1ccc(C2=NNC(=O)[C@@H]3CCCC[C@H]23)cc1OC (relative stereo) | -6.9 | – |
| CCOc1ccc(C2=NN(c3ccc(C(=O)O)cc3)C(=O)[C@@H]3CC=CC[C@H]23)cc1OCC | -8.3 | 47 |
| COc1ccc(C2=NNC(=O)[C@@H]3CC=CC[C@H]23)c2c1OC1(CCCC1)C2 | -8.5 | – |
| COc1ccc(C2=NNC(=O)[C@H]3CC=CC[C@@H]23)cc1OC | -6.1 | – |
| COc1ccc(C2=NNC(=O)C3CCCCC23)c2c1OC1(CCCC1)C2 (racemic) | -7.3 | – |
| COc1ccc(C2=NNC(=O)C3CC=CCC23)c2c1OC1(CCCC1)C2 (racemic) | -8 | – |
| COc1ccc(C2=NNC(=O)C3CC=CCC23)cc1OC (racemic) | -7 | – |
| CCOC(=O)c1ccc(N2N=C(c3ccc(OCC)c(OCC)c3)C3CC=CCC3C2=O)cc1 (racemic) | -8 | – |
| CCOC(=O)c1ccc(N2N=C(c3ccc(OCC)c(OCC)c3)[C@H]3CC=CC[C@H]3C2=O)cc1 | -8.2 | 27 |
| COc1ccc(C2=NNC(=O)[C@H]3CCCC[C@@H]23)c2c1OC1(CCCC1)C2 | -5.6 | – |
| COc1ccc(C2=NNC(=O)[C@@H]3CC=CC[C@H]23)cc1OC (relative stereo) | -7.3 | – |
| COc1ccc(C2=NNC(=O)[C@@H]3CC=CC[C@H]23)cc1OC1CCCC1 (relative stereo) | -7.4 | – |
| COc1ccc(C2=NNC(=O)[C@H]3CC=CC[C@@H]23)cc1OC1CCCC1 | -6.7 | – |
| COc1ccc([C@H](Cc2ccncc2)c2ccccc2)cc1OC1CCCC1 [CDP840] | -7.7 | 48 |
| COc1ccc([C@]2(C#N)CC[C@@H](C(=O)O)CC2)cc1OC1CCCC1 [CILOMILAST] | – | 33 |
| COc1ccc(C2=NN(C3C4CC5CC(C4)CC3C5)C(=O)C3CC=CCC23)cc1OC (racemic) | -9.2 | 51 |
| COc1ccc(C2=NNC(=O)C3CC=CCC23)cc1OC1CCCC1 (centres undefined) | -7.1 | – |
| COc1ccc(C2=NN(C3C4CC5CC(C4)CC3C5)C(=O)[C@@H]3CC=CC[C@H]23)cc1OC (single isomer, unassigned; (+)) | -9.3 | 49 |
| COc1ccc(C2=NNC(=O)[C@@H]3CCCC[C@H]23)cc1OC1CCCC1 (relative stereo) | -7.1 | – |
| COc1ccc(C2=NNC(=O)C3CCCCC23)cc1OC (centres undefined) | -6.4 | – |
